Patent publication EP0829476B1, “6-Substituted acyclopyrimidine nucleoside derivatives and antiviral agent containing the same as active ingredient thereof” (MITSUBISHI CHEMICAL CORPORATION, priority 1989, dated 1991)

Assays:
[1] = Cytotoxicity: destruction of MT-4 cells not infected with HIV, cultured the same way; assay type: cell-based; settings: human, 5 days of incubation, concentration at which 50 % of the MT-4 cells were destroyed, read-out: 50% cytotoxic concentration to MT-4 cells
Experimental: (§1) In RPMI 1640 DM culture medium containing 20 mM of Hepes buffer solution, 10 % fetal bovine serum and 20 µg/ml of gentamycin, 3 x 10^4 MT-4 cells (human T cell clone which is destroyed by the infection of HIV) were infected with HIV in an amount of 100 times as large as expected to cause 50 % infection of the cells. Immediately thereafter, a predetermined amount of sample was added to the culture medium using 50 mg/ml sample solutions in dimethyl sulfoxide and the cells were cultured at 37°C.
(§2) After 5 days of incubation, the number of existing cells was counted to determine the concentration of the compound for preventing the death of 50 % of the MT-4 cells. Separately, MT-4 cells were cultured in the same way as above except that they were not infected with HIV to determine the concentration of the compound at which 50 % of the MT-4 cells were destroyed.

[2] = test system: HIV; assay: Inhibitory activity for HIV infection: prevention of death of HIV-infected MT-4 cells, cell count after 5 days; assay type: cell-based; settings: Human immunodeficiency virus 1, MT4, 120 h, 5 days of incubation at 37°C, concentration preventing the death of 50 % of the MT-4 cells
Experimental: Inhibitory activity for HIV infection
as §1, §2

Structure (SMILES) | CC50 at 120 h [1] | EC50 [2]
CCOCn1c(Cc2ccccc2)c(CC)c(=O)[nH]c1=O [Compound 427, 6-benzyl-1-ethoxymethyl-5-ethyluracil] | 245 µM | 
CCCCn1c(-c2ccccc2)c(CC)c(=O)[nH]c1=S [Compound 220, 1-butyl-5-ethyl-6-phenylthiouracil] | 45 µM | 0.016 µM
CCOCn1c(Sc2ccccc2)c(CC)c(=O)[nH]c1=S [Compound 313, 1-ethoxymethyl-5-ethyl-6-phenylthio-2-thiouracil] | 81 µM | 
CCOCn1c(-c2ccccc2)c(CC)c(=O)[nH]c1=S [Compound 215, 1-ethoxymethyl-5-ethyl-6-phenylthiouracil] | 133 µM | 0.016 µM
CCCOCn1c(Sc2ccccc2)c(C)c(=O)[nH]c1=O [Compound 38] | 147 µM | 5.6 µM
CCOCn1c(Sc2cc(C)cc(C)c2)c(CC)c(=O)[nH]c1=S [Compound 314] | > 100 µM | 0.004 µM
CC(=O)OCCOCn1c(Sc2ccccc2)c(C)c(=O)[nH]c1=S [Compound 1, 1-[(2-acetoxyethoxy)methyl]-6-phenylthio-2-thiothymine] | 196 µM | 
